ChEMBL document CHEMBL1145890, “Synthesis, characterization, and in vitro antitumor activity of osteotropic diam(m)ineplatinum(II) complexes bearing a N,N-bis(phosphonomethyl)glycine ligand” (J Med Chem, 2003)

Test system: CH1
Assay: Antiproliferative activity in human ovarian cancer cell line (CH1) using MTT assay
Type: functional, cell-based

Sequence	IC50
OXALIPLATIN	270 nM
CARBOPLATIN	2500 nM
